pIC50: −log10 of the molar value.
System: 8XTBD luciferase reporter (YAP reporter) in HEK293T cells
Experiment: YAP Reporter Assay
Assay type: cell-based
Details: Homo sapiens, HEK-293T; HEK293T cells stably transfected with 8XTBD luciferase reporter and pRLTK; 24-hr incubation; top concentration 3 μM; read-out: Firefly Luciferase IC50
Method in brief: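 HEK293T cells stably carrying 8XTBD firefly luciferase and TK-renilla (3×10^3 cells/well) dosed 3-4 h after plating with compounds from 3 μM final, 1:3 dilution, 10 points, quadruplicates. After 24 h at 37° C, Dual-Glo readings gave IC50 and maximum inhibition reported separately for firefly and renilla.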

## C[C@@H](NC(=O)c1ccc2c(-c3ccc(C(F)(F)F)cc3)cccc2c1)c1cccc2ccc(=O)[nH]c12 [Compound 177, N-[(1R)-1-(2-oxo-1H-quinolin-8-yl)ethyl]-5-[4-(trifluoromethyl)phenyl]naphthalene-2-carboxamide]
  pIC50: > 7.00

## C[C@H](NC(=O)c1ccc2c(-c3ccc(C(F)(F)F)cc3)cccc2c1)c1cccc2ccc(=O)[nH]c12 [Compound 178, N-[(1S)-1-(2-oxo-1H-quinolin-8-yl)ethyl]-5-[4-(trifluoromethyl)phenyl]naphthalene-2-carboxamide]
  pIC50: 5.52 to 6.00

## N#Cc1nccc(CNC(=O)c2ccc3c(-c4ccc(C(F)(F)F)cc4)cccc3c2)n1 [Compound 179, N-((2-cyanopyrimidin-4-yl)methyl)-5-(4-(trifluoromethyl)phenyl)-2-naphthamide]
  pIC50: > 7.00

## O=C(NCc1ccnc(Cl)n1)c1ccc2c(-c3ccc(C(F)(F)F)cc3)cccc2c1 [Compound 180, N-((2-chloropyrimidin-4-yl)methyl)-5-(4-(trifluoromethyl)phenyl)-2-naphthamide]
  pIC50: 6.00 to 7.00

## O=C(NCC/C=C/COc1ccon1)c1ccc2c(-c3ccc(C(F)(F)F)cc3)cccc2c1 [Compound 181, N-[(E)-5-isoxazol-3-yloxypent-3-enyl]-5-[4-(trifluoromethyl)phenyl]naphthalene-2-carboxamide]
  pIC50: > 7.00

## C[C@@H](NC(=O)c1ccc2c(-c3ccc(C(F)(F)F)cc3)cccc2c1)c1cccc2cn[nH]c12 [Compound 182, N-[(1R)-1-(1H-indazol-7-yl)ethyl]-5-[4-(trifluoromethyl)phenyl]naphthalene-2-carboxamide]
  pIC50: > 7.00

## C[C@H](NC(=O)c1ccc2c(-c3ccc(C(F)(F)F)cc3)cccc2c1)c1cccc2cn[nH]c12 [Compound 183, N-[(1S)-1-(1H-indazol-7-yl)ethyl]-5-[4-(trifluoromethyl)phenyl]naphthalene-2-carboxamide]
  pIC50: 5.52 to 6.00

## NC(=O)c1nc(CNC(=O)c2ccc3c(-c4ccc(C(F)(F)F)cc4)cccc3c2)ns1 [Compound 184, 3-((5-(4-(Trifluoromethyl)phenyl)-2-naphthamido)methyl)-1,2,4-thiadiazole-5-carboxamide]
  pIC50: > 7.00

## O=C(NCc1ccncn1)c1ccc2c(-c3ccc(C(F)(F)F)cc3)cccc2c1 [Compound 185, N-(pyrimidin-4-ylmethyl)-5-(4-(trifluoromethyl)phenyl)-2-naphthamide]
  pIC50: > 7.00

## N#Cc1cc(CNC(=O)c2ccc3c(-c4ccc(C(F)(F)F)cc4)cccc3c2)ccn1 [Compound 186, N-((2-cyanopyridin-4-yl)methyl)-5-(4-(trifluoromethyl)phenyl)-2-naphthamide]
  pIC50: > 7.00

## O=C(NCc1cccc(COc2c(F)cccc2F)n1)c1ccc2c(-c3ccc(C(F)(F)F)cc3)cccc2c1 [Compound 187, N-((6-((2,6-difluorophenoxy)methyl)pyridin-2-yl)methyl)-5-(4-(trifluoromethyl)phenyl)-2-naphthamide]
  pIC50: 6.00 to 7.00

## O=C(NC(CCO)c1ccccn1)c1ccc2c(-c3ccc(C(F)(F)F)cc3)cccc2c1 (centres unmarked) [Compound 188, N-[3-hydroxy-1-(2-pyridyl)propyl]-5-[4-(trifluoromethyl)phenyl]naphthalene-2-carboxamide]
  pIC50: > 7.00

## O=C(NCc1cccc(F)n1)c1ccc2c(-c3ccc(C(F)(F)F)cc3)cccc2c1 [Compound 190, N-((6-fluoropyridin-2-yl)methyl)-5-(4-(trifluoromethyl)phenyl)-2-naphthamide]
  pIC50: 6.00 to 7.00

## N#Cc1cccc(CNC(=O)c2ccc3c(-c4ccc(C(F)(F)F)cc4)cccc3c2)n1 [Compound 191, N-((6-cyanopyridin-2-yl)methyl)-5-(4-(trifluoromethyl)phenyl)-2-naphthamide]
  pIC50: 6.00 to 7.00

## O=C(NCc1cccc(COc2ccon2)c1)c1ccc2c(-c3ccc(C(F)(F)F)cc3)cccc2c1 [Compound 192, N-(3-((isoxazol-3-yloxy)methyl)benzyl)-5-(4-(trifluoromethyl)phenyl)-2-naphthamide]
  pIC50: 6.00 to 7.00

## O=C(NCc1ncsn1)c1ccc2c(-c3ccc(C(F)(F)F)cc3)cccc2c1 [Compound 193, N-((1,2,4-thiadiazol-3-yl)methyl)-5-(4-(trifluoromethyl)phenyl)-2-naphthamide]
  pIC50: > 7.00

## C[C@H](NC(=O)c1ccc2c(-c3ccc(C(F)(F)F)cc3)cccc2c1)c1cn(C)cn1 [Compound 195, (S)—N-(1-(1-methyl-1H-imidazol-4-yl)ethyl)-5-(4-(trifluoromethyl)phenyl)-2-naphthamide]
  pIC50: > 7.00

## C[C@@H](NC(=O)c1ccc2c(-c3ccc(C(F)(F)F)cc3)cccc2c1)c1cn(C)cn1 [Compound 196, (R)—N-(1-(1-methyl-1H-imidazol-4-yl)ethyl)-5-(4-(trifluoromethyl)phenyl)-2-naphthamide]
  pIC50: 6.00 to 7.00

## O=C(NC(CO)Cc1ccccn1)c1ccc2c(-c3ccc(C(F)(F)F)cc3)cccc2c1 (centres unmarked) [Compound 197, N-(1-hydroxy-3-(pyridin-2-yl)propan-2-yl)-5-(4-(trifluoromethyl)phenyl)-2-naphthamide]
  pIC50: 6.00 to 7.00

## O=C(NCCC/C=C/COc1ccon1)c1ccc2c(-c3ccc(C(F)(F)F)cc3)cccc2c1 [Compound 198, N-[(E)-6-isoxazol-3-yloxyhex-4-enyl]-5-[4-(trifluoromethyl)phenyl]naphthalene-2-carboxamide]
  pIC50: > 7.00

## CC(=O)N1CC([C@@H](C)NC(=O)c2ccc3c(-c4ccc(C(F)(F)F)cc4)cccc3c2)C1 [Compound 199, (R)—N-(1-(1-acetylazetidin-3-yl)ethyl)-5-(4-(trifluoromethyl)phenyl)-2-naphthamide]
  pIC50: 6.00 to 7.00

## CC(=O)N1CC([C@H](C)NC(=O)c2ccc3c(-c4ccc(C(F)(F)F)cc4)cccc3c2)C1 [Compound 200, (S)—N-(1-(1-acetylazetidin-3-yl)ethyl)-5-(4-(trifluoromethyl)phenyl)-2-naphthamide]
  pIC50: 6.00 to 7.00

## CC(NC(=O)c1ccc2c(-c3ccc(C(F)(F)F)cc3)cccc2c1)c1nsc(C(N)=O)n1 (centres unmarked) [Compound 201, 3-(1-(5-(4-(Trifluoromethyl)phenyl)-2-naphthamido)ethyl)-1,2,4-thiadiazole-5-carboxamide]
  pIC50: > 7.00

## NC(=O)/C=C/CCCNC(=O)c1ccc2c(-c3ccc(C(F)(F)F)cc3)cccc2c1 [Compound 202, N-[(E)-6-amino-6-oxo-hex-4-enyl]-5-[4-(trifluoromethyl)phenyl]naphthalene-2-carboxamide]
  pIC50: 6.00 to 7.00

## C[C@@H](NC(=O)c1ccc2c(-c3ccc(C(F)(F)F)cc3)cccc2c1)C1CNC1 [Compound 203, (R)—N-(1-(azetidin-3-yl)ethyl)-5-(4-(trifluoromethyl)phenyl)-2-naphthamide]
  pIC50: > 7.00

## C[C@H](NC(=O)c1ccc2c(-c3ccc(C(F)(F)F)cc3)cccc2c1)C1CNC1 [Compound 204, (S)—N-(1-(azetidin-3-yl)ethyl)-5-(4-(trifluoromethyl)phenyl)-2-naphthamide]
  pIC50: 6.00 to 7.00

## C[C@@H](NC(=O)c1ccc2c(-c3ccc(C(F)(F)F)cc3)cccc2c1)c1ccccc1Cl [Compound 206, (R)—N-(1-(2-chlorophenyl)ethyl)-5-(4-(trifluoromethyl)phenyl)-2-naphthamide]
  pIC50: > 7.00

## COCCOc1cccc(CNC(=O)c2ccc3c(-c4ccc(C(F)(F)F)cc4)cccc3c2)c1 [Compound 208, N-(3-(2-methoxyethoxy)benzyl)-5-(4-(trifluoromethyl)phenyl)-2-naphthamide]
  pIC50: > 7.00

## O=C(O)/C=C/CCNC(=O)c1ccc2c(-c3ccc(C(F)(F)F)cc3)cccc2c1 [Compound 209, (E)-5-[[5-[4-(trifluoromethyl)phenyl]naphthalene-2-carbonyl]amino]pent-2-enoic Acid]
  pIC50: 5.52 to 6.00

## COc1cc(CNC(=O)c2ccc3c(-c4ccc(C(F)(F)F)cc4)cccc3c2)ccn1 [Compound 210, N-((2-methoxypyridin-4-yl)methyl)-5-(4-(trifluoromethyl)phenyl)-2-naphthamide]
  pIC50: 6.00 to 7.00

## O=C(NCc1ccnc(F)c1)c1ccc2c(-c3ccc(C(F)(F)F)cc3)cccc2c1 [Compound 211, N-((2-fluoropyridin-4-yl)methyl)-5-(4-(trifluoromethyl)phenyl)-2-naphthamide]
  pIC50: > 7.00

## COCC(C)(C)NC(=O)c1ccc2c(-c3ccc(C(F)(F)F)cc3)cccc2c1 [Compound 212, N-(1-methoxy-2-methylpropan-2-yl)-5-(4-(trifluoromethyl)phenyl)-2-naphthamide]
  pIC50: > 7.00

## C[C@@H](NC(=O)c1ccc2c(-c3ccc(C(F)(F)F)cc3)cccc2c1)c1cc(N)ccn1 [Compound 213, (R)—N-(1-(4-aminopyridin-2-yl)ethyl)-5-(4-(trifluoromethyl)phenyl)-2-naphthamide]
  pIC50: 6.00 to 7.00

## C[C@H](NC(=O)c1ccc2c(-c3ccc(C(F)(F)F)cc3)cccc2c1)c1cc(N)ccn1 [Compound 214, (S)—N-(1-(4-aminopyridin-2-yl)ethyl)-5-(4-(trifluoromethyl)phenyl)-2-naphthamide]
  pIC50: 5.52 to 6.00

## N#Cc1cccc(CNC(=O)c2ccc3c(-c4ccc(C(F)(F)F)cc4)cccc3c2)c1 [Compound 215, N-(3-cyanobenzyl)-5-(4-(trifluoromethyl)phenyl)-2-naphthamide]
  pIC50: > 7.00

## N#C/C=C\CCNC(=O)c1ccc2c(-c3ccc(C(F)(F)F)cc3)cccc2c1 [Compound 216, N—[(Z)-4-cyanobut-3-enyl]-5-[4-(trifluoromethyl)phenyl]naphthalene-2-carboxamide]
  pIC50: 6.00 to 7.00

## N#C/C=C/CCNC(=O)c1ccc2c(-c3ccc(C(F)(F)F)cc3)cccc2c1 [Compound 217, N-[(E)-4-cyanobut-3-enyl]-5-[4-(trifluoromethyl)phenyl]naphthalene-2-carboxamide]
  pIC50: > 7.00

## C[C@@H](NC(=O)c1ccc2c(-c3ccc(C(F)(F)F)cc3)cccc2c1)c1cccnc1N [Compound 218, (R)—N-[1-(2-amino-3-pyridyl)ethyl]-5-[4-(trifluoromethyl)phenyl]naphthalene-2-carboxamide]
  pIC50: > 7.00
